Measured values from patent EP4759807A1, “PROTEOLYSIS TARGETING CHIMERA COMPOUND FOR DEGRADING IRAK4 AND USE THEREOF” (Shenzhen Zhongge Biological Technology Co., Ltd., priority 2023, dated 2025).

Molecular target: T1, IRAK4 (Homo sapiens, UniProt Q9NWZ3)
T1 sequence (Q9NWZ3 1-460): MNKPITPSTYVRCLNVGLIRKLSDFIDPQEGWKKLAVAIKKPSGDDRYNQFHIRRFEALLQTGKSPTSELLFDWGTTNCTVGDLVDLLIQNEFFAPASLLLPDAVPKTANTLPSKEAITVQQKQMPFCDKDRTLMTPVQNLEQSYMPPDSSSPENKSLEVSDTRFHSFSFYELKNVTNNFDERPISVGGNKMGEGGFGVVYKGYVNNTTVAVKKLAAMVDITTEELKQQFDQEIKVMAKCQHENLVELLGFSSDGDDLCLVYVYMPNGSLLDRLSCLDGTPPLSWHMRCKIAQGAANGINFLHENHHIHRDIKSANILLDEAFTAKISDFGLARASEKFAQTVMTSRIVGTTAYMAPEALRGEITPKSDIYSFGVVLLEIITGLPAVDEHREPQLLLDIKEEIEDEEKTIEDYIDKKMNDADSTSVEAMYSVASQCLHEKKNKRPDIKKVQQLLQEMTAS
Assay: Hibit fluorescence detection of proteolysis (IRAK4-HiBiT in HEK293T cells)
Assay type: cell-based
Set-up: host or cells: HEK293T (ATCC)
Conditions: for Dmax: HEK-293T; for DC50: IRAK4-HiBiT, HEK293T cells, 24 h
Procedure, shortened: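 Degradation read-out: luminescence from lytic HiBiT detection (15 min, room temperature) after 24 h compound exposure (37 °C, 5% CO2) of HEK293T cells transiently expressing IRAK4 fused to a HiBiT tag. Data fitted to a bell-shaped four-parameter model giving two EC50 values.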

Compound	Dmax	DC50
Cn1c(=O)n(C2CCC(=O)NC2=O)c2cccc(N3CCN(C4CCN(C[C@H]5CC[C@H](n6cc(-n7cc(-n8ccc9cc(C(N)=O)cnc98)nn7)c(C(F)F)n6)CC5)CC4)CC3)c21 (some centres unmarked) [Example 104, 1-(1-(3-(difluoromethyl)-1-((1r,4r)-4-((4-(4-(1-(2,6-dioxopiperidin-3-yl)-3-methyl-2-oxo-2,3-dihydro-1H-benzo[d]imidazol-4-yl)piperazin-1-yl)piperidin-1-yl)methyl)cyclohexyl)-1H-pyrazol-4-yl)-1H-1,2,3-triazol-4-yl)-1H-pyrrolo[2,3-b]pyridine-5-carboxamide]	> 80%	< 0.5 nM
Cn1c(=O)n(C2CCC(=O)NC2=O)c2cccc(N3CC4(CCN(C[C@H]5CC[C@H](n6cc(-n7cc(-n8ccc9cc(C(N)=O)cnc98)nn7)c(C(F)F)n6)CC5)CC4)C3)c21 (some centres unmarked) [Example 105, 1-(1-(3-(difluoromethyl)-1-((1r,4r)-4-((2-(1-(2,6-dioxopiperidin-3-yl)-3-methyl-2-oxo-2,3-dihydro-1H-benzo[d]imidazol-4-yl)-2,7-diazaspiro[3.5]non-7-yl)methyl)cyclohexyl)-1H-pyrazol-4-yl)-1H-1,2,3-triazol-4-yl)-1H-pyrrolo[2,3-b]pyridine-5-carboxamide]	> 80%	< 0.5 nM
Cn1c(=O)n(C2CCC(=O)NC2=O)c2cccc(C#CCOC3CCN(C[C@H]4CC[C@H](n5cc(-n6cc(-n7ccc8cc(C(N)=O)cnc87)nn6)c(C(F)F)n5)CC4)CC3)c21 (some centres unmarked) [Example 106, 1-{1-[3-(difluoromethyl)-1-[(1r,4r)-4-{[4-({3-[1-(2,6-dioxohexahydropyridin-3-yl)-3-methyl-2-oxobenzo[d]imidazol-4-yl]prop-2-ynyl}oxy)hexahydropyridin-1-yl]methyl}cyclohexyl]pyrazol-4-yl]-1,2,3-triazol-4-yl}pyrrolo[2,3-b]pyridine-5-carboxamide]	60 to 70%	< 0.5 nM
Cn1c(=O)n(C2CCC(=O)NC2=O)c2cccc(NC(=O)CN3CCN(C[C@H]4CC[C@H](n5cc(-n6cc(-n7ccc8cc(C(N)=O)cnc87)nn6)c(C(F)F)n5)CC4)CC3)c21 (some centres unmarked) [Example 107, 1-(1-(3-(difluoromethyl)-1-((1r,4r)-4-((4-(2-((1-(2,6-dioxopiperidin-3-yl)-3-methyl-2-oxo-2,3-dihydro-1H-benzo[d]imidazol-4-yl)amino)-2-oxoethyl)piperazin-1-yl)methyl)cyclohexyl)-1H-pyrazol-4-yl)-1H - 1,2,3-triazol-4-yl)-1H-pyrrolo[2,3-b]pyridine-5-carboxamide]	> 80%	1 to 5 nM
Cn1c(=O)n(C2CCC(=O)NC2=O)c2cccc(N3CCC4(CCN(C[C@H]5CC[C@H](n6cc(-n7cc(-c8cnn9ccc(NCC%10CC%10)nc89)nn7)c(C(F)F)n6)CC5)CC4)C3)c21 (some centres unmarked) [Example 109]	> 80%	0.5 to 1 nM
Cn1c(=O)n(C2CCC(=O)NC2=O)c2cccc(N3CCN(C4CCN(C[C@H]5CC[C@H](n6cc(-n7cc(-c8cnn9ccc(NCC%10CC%10)nc89)nn7)c(C(F)F)n6)CC5)CC4)CC3)c21 (some centres unmarked) [Example 110, 3-(4-(4-(1-(((1r,4r)-4-(4-(5-((cyclopropylmethyl)amino)pyrazolo[1,5-a]pyrimidin-3-yl)-1H-1,2,3-triazol-1-yl)-3-(difluoromethyl)-1H-pyrazol-1-ylcyclohexyl)methyl)piperidin-4-yl)piperazin-1-yl)3-methyl-2-oxo-2,3-dihydro-1H-benzo[d]imidazol-1-yl)piperidine-2,6-dione]	> 80%	< 0.5 nM
Cn1c(=O)n(C2CCC(=O)NC2=O)c2cccc(N3CCC(N4CCN(C[C@H]5CC[C@H](n6cc(-n7cc(-c8cnn9ccc(N%10CCS(=O)(=O)CC%10)nc89)nn7)c(C(F)F)n6)CC5)CC4)CC3)c21 (some centres unmarked) [Example 111, 3-(4-(4-(((1r,4r)-4-(3-(difluoromethyl)-4-(4-(5-(1,1-dioxodimorpholinyl)pyrazolo[1,5-a]pyrimidin-3-yl)-1H-1,2,3-triazol-1-yl)-1H-pyrazol-1-ylcyclohexyl)methyl)piperazin-1-yl)piperidin-1-yl)-3-methyl-2-oxo-2,3-dihydro-1H-benzo[d]imidazol-1-yl)pyridine-2,6-dione]	> 80%	0.5 to 1 nM
